From ChEMBL document CHEMBL1201862, “PubChem BioAssay data set” (2004) come the findings set out here.

Active and inactive are the calls of the source. For most assays here, no stated cut-off is given here; in the data, actives have a measured EC50 and inactives only a lower limit.

Experiment [1] can be described thus: viability of uninfected HEp-2 cells – cell-based, HTS, cytotoxicity control for RSV inhibitor project, dose response (AID 2410). The format is functional. As to conditions: human respiratory syncytial virus.
A short description of experiment [2]: luciferase reporter signal suppression in cells – H4 neuroglioma cells, luminescence, dose response (AID 1990). It counts as functional, cell-based.
Experiment [3] is described as follows: Luminescence Cell-Based Dose Response HTS to Identify Inhibitors of 5'UTR Stem-Loop Driven Prion Protein mRNA Translation in H4 Neuroglioblastoma Cells. [Related pubchem assays: 1827 (Project Summary), 1813 (Primary HTS)]. It counts as functional.
The nature of experiment [4]: alpha-synuclein stem-loop luciferase translation blockers – H4 neuroglioma cells, luminescence, confirmation (AID 1988). It counts as functional, cell-based.
A further experiment has as its target T1, Streptokinase A (Streptococcus pyogenes serotype M1, UniProt P10520).
T1 sequence (P10520 whole entry): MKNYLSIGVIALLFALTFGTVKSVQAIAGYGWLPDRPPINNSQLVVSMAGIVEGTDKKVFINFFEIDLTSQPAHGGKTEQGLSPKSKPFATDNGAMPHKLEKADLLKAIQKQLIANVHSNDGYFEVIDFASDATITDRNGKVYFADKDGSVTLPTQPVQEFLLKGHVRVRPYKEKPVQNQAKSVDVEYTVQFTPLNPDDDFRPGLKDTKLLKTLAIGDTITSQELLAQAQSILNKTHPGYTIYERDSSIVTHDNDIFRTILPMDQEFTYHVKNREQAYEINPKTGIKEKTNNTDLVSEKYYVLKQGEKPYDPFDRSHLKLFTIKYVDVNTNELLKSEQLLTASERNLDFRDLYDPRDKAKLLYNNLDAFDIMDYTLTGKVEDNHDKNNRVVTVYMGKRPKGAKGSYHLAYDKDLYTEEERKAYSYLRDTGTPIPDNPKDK
Nature of the experiment: viability-normalized secreted streptokinase activity reduction – plasminogen activation absorbance, OD405, dose response (AID 1914).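 Further: secreted streptokinase activity via plasminogen activation per viability signal from cell pellet.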 It counts as functional, Streptococcus pyogenes M1 GAS.

For experiment [5], the system named is Streptococcus sp. 'group A'. The experiment in a line: Streptococcus pyogenes SK(-)GAS viability under kanamycin – luminescence, BacTiterGlo, confirmation, counter-screen for streptokinase expression inhibitor project, dose response (AID 1900). It counts as functional, organism-based.
The test system of a further experiment is Streptococcus. The experiment in a line: GAS UMAA2166 growth inhibition – luminescence, BacTiterGlo, counter-screen for streptokinase expression inhibitor project, dose response (AID 1915).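 Further: potency for reduction of bacterial viability or growth.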 It counts as functional, organism-based. (The purpose of a counterscreen is to sort out artefacts and off-target activity.)
In the next experiment the target is T2, Cytochrome P450 1A2 (Homo sapiens, UniProt P05177).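 Further: PubChem cytochrome P450 panel assay, CYP1A2 panel member.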
T2 sequence (P05177 whole entry): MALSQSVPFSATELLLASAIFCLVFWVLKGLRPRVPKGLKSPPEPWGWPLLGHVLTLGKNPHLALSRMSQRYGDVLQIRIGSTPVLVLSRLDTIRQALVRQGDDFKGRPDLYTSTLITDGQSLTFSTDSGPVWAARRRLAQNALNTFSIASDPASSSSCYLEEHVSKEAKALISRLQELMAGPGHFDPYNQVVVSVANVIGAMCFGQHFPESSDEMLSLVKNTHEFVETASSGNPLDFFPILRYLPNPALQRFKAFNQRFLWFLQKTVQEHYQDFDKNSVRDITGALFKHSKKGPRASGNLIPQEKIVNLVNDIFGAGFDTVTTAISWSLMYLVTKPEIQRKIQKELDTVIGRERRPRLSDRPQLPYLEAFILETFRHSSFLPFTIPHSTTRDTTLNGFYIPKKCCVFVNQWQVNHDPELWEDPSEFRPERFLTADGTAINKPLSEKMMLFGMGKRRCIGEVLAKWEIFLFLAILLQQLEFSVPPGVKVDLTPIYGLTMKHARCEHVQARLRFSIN

Another experiment has as its target Cytochrome P450 3A4 (Homo sapiens, UniProt P08684).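 Further: CYP3A4 tested as one member of a cytochrome P450 panel screen.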
The nature of experiment [6]: Luminescence Cell-Based Dose Retest to Confirm Inhibitors of Cancer Stem Cells. [Related pubchem assays (depositor defined):AID2717, AID2721]. It counts as functional. As to conditions: Homo sapiens.
Experiment [7] can be described thus: Trypanosoma cruzi growth suppression in host cells – NIH3T3 host cells, beta-gal luminescence, confirmation (AID 2044).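 Further: intracellular parasites grown in NIH/3T3 mouse fibroblasts as host cells; luminescent beta-galactosidase reporter signal from transgenic T. cruzi replicating inside host cells; inhibitors lower the luminescence signal.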 It counts as functional, cell-based.
Experiment [8] can be described thus: NIH3T3 cell viability loss – ATP luminescence, mouse fibroblasts, counter-screen, dose response (AID 2010).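 Further: cells exposed to compound for about 90 hours before reading.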 It counts as functional, cell-based.
In experiment [9] the target is T3, Corticotropin-releasing factor receptor 2/Corticotropin-releasing factor-binding protein (Homo sapiens, UniProt P24387+Q13324).
T3 sequence (Q13324 whole entry): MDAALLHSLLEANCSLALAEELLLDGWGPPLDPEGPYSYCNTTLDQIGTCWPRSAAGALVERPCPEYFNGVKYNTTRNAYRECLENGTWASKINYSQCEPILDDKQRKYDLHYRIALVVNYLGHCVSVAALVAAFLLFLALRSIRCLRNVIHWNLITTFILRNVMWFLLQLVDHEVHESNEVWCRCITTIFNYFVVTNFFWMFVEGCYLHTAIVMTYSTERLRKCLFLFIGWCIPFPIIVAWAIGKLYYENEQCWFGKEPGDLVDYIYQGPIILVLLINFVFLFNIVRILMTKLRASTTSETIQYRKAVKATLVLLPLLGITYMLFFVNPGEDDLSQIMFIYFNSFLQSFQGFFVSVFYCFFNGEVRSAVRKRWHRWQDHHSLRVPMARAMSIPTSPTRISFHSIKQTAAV
T3 sequence (P24387 whole entry): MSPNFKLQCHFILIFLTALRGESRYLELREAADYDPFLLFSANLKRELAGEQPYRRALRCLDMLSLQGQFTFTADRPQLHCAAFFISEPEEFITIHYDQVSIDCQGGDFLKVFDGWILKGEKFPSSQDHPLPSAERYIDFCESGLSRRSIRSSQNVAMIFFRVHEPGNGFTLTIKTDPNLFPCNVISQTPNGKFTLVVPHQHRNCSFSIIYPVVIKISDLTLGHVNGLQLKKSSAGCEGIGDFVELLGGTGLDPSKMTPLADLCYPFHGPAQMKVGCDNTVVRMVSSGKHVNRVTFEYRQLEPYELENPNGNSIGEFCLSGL
The experiment in a line: activators of CRF receptor 2 with binding protein – uHTS hits, confirmation (AID 602473). The format is functional. Particulars: read-out: EC50_Mean.

A further experiment deals with INS1. Nature of the experiment: INS-1E survival protection against cytokine death – cell-based, luminescence, retest, dose response (AID 449756).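 Further: cell death triggered by IL-1 beta plus TNF-alpha plus IFN-gamma mixture; protective hits raise ATP signal compared with cytokine alone wells.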 The format is functional. As to conditions: Rattus norvegicus.

What is called CC50 is the concentration at which the toxic effect on the cells reaches its halfway point. Usually AC50 stands for the midpoint of the concentration-response curve, whichever way the signal moves.

Chain of Cytochrome P450 3A4 (P08684 whole entry): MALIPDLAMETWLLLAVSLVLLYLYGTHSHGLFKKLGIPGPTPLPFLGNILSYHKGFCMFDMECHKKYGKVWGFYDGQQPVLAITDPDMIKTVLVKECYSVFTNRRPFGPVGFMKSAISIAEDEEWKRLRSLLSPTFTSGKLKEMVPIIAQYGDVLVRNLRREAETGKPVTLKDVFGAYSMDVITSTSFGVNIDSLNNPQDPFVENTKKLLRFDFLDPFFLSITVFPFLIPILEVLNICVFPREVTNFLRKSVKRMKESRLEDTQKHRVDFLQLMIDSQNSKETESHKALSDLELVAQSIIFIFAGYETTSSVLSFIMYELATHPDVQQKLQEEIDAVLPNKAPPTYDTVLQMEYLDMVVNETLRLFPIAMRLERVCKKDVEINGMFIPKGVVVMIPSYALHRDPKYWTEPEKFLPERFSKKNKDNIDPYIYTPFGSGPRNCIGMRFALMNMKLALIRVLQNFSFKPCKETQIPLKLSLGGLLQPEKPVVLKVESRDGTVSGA

With `NC(=O)NNC1=Nc2cccc3cccc1c23`, the CC50 in [1] was > 50 µM (active).

Consider `CCCN1C(=O)COc2ccc(-c3nnc(O)c4ccccc34)cc21`, for which the EC50 was 22.7 µM (active) in experiment [2], > 120 µM (not active) in experiment [3] and 30.9 µM (active) in [4].

As to `COC(=O)c1cccc(NC(=S)NCc2ccc(Cl)cc2)c1`, the EC50 on Streptokinase A was > 150 µM (not active).

Regarding `S=C(NCc1ccco1)N1CCN(c2nc(-c3ccc(Cl)cc3)cs2)CC1`, the EC50 in experiment [5] was 9.38 µM (active); on Streptokinase A, 36.4 µM (active); with Streptococcus, 32.1 µM (active).

For the molecule `CCn1nc([N+](=O)[O-])c2c(-c3nc4ccccc4o3)c(N)n(CCCOC)c2c1=O`, the EC50 in [2], in experiment [3] and in [4] was > 120 µM (not active) each time.

Take `CSc1cccc(NC(=O)OC2CCCCCCCCCCC2)c1`: the EC50 in experiment [5] was 4.09 µM (active); at Streptokinase A, 2.93 µM (active); with Streptococcus it was 10.8 µM (active). For the same molecule, the AC50 was 5.01 µM (inconclusive) on Cytochrome P450 1A2 and 3.16 µM (inconclusive) on Cytochrome P450 3A4.

As for `SC1=NC[C@H](CC2CCCCC2)N1CC1CCCCC1`, the EC50 in experiment [5] was 12.6 µM (active); at Streptokinase A, 25.4 µM (active); in the experiment with Streptococcus, 19.6 µM (active).

Take `S=C(Nc1cc(Cl)cc(Cl)c1)NC1CCN(Cc2ccccc2)CC1`: the EC50 is > 120 µM (not active) in [2], > 120 µM (not active) in [3] and 11.4 µM (active) in experiment [4]. For the same molecule, the concentration at half-maximal activity (AC50) in experiment [6] is 5.23 µM (active).

For `CC(=O)c1cnc(SCC(=O)O)nc1C`, the EC50 in [2], in [3] and in experiment [4] was > 120 µM (not active) each time.

As to `COc1ccc(C(=O)CSc2nc(-c3ccccn3)nc(C)c2Cl)cc1`, the results for the EC50 (in [5]; on Streptokinase A; in the experiment on Streptococcus) were 7.92 µM (active), > 150 µM (not active) and 36.4 µM (active), respectively.

Take `Cc1cccc(NC(=S)/N=C(\N)Nc2nc(C)c3ccc(C)cc3n2)c1`: the EC50 in experiment [5] was 77.2 µM (active); on Streptokinase A, > 150 µM (inconclusive); in experiment [7] it was 2.12 µM (active); in experiment [8], > 60 µM (not active); with Streptococcus it was > 150 µM (not active).

Regarding `CCCCSc1nc2c(c(=O)n1CC)SC(C)C2` (centres undefined), the EC50 in experiment [2] is 15.3 µM (active); in experiment [3], > 60 µM (not active); in experiment [4] it was > 120 µM (not active).

Turning to `CCNC(=O)Nc1ccccc1C(=O)OC`, the half-maximal cytotoxic concentration (CC50) in experiment [1] is 27.7 µM (active).

With `COc1ccccc1OCC(=O)NNC(=S)NC(=O)c1ccco1`, the EC50 in experiment [5] is 2.81 µM (active); on Streptokinase A it was > 150 µM (not active); in the experiment with Streptococcus it was 41.4 µM (active).

Take `COc1cccc(N(C(=O)c2snc(C(N)=O)c2N)C(C(=O)NCc2ccccc2)c2ccc(O)cc2)c1` (centres undefined): in experiment [1], the CC50 was > 50 µM (active).

For `O=C(CC1CCCCC1)c1c(O)c2ccccc2oc1=O`, the EC50 in experiment [5] was 3.42 µM (active); on Streptokinase A, > 150 µM (not active); with Streptococcus, 55 µM (active); in experiment [9], 7.06 µM (active).

Turning to `Cc1ccc(-c2ccnc3c(Cl)c(C)nn23)cc1`, the values for the EC50 in experiment [2], in [3] and in experiment [4] were > 120 µM (not active), > 120 µM (not active) and 13.7 µM (active), respectively.

For `Cn1nc(-c2ccccc2)c(CSc2cccc(Cl)c2)c1Cl`, the EC50 on Streptokinase A was 19.8 µM (active); with Streptococcus, > 150 µM (not active).

Regarding `Fc1ccccc1CNc1cc(Cl)cc(Cl)c1`, the EC50 in experiment [5] is 9.65 µM (active); at Streptokinase A it was > 150 µM (not active); in the experiment with Streptococcus, 17.8 µM (active).

As for `CCn1nc(C)c(CN2CCc3c([nH]c4ccccc34)C2C(C)(C)C)c1C` (centres undefined), in [1], the cytotoxic concentration (CC50) is > 50 µM (active).

Turning to `CCOC(=O)c1c(C)[nH]c(C(=O)Cn2c(=O)c3c(ncn3CC)n(Cc3ccccc3)c2=O)c1C`, the EC50 in experiment [2] was > 120 µM (not active); in experiment [3], > 120 µM (not active); in [4], 17.2 µM (active).

`O=C(Nc1ccc(N2CCOCC2)cc1)c1cc2c(s1)CCCC2`: the CC50 in experiment [1] was > 50 µM (active).

Turning to `COc1ccc([C@H]2Oc3cc(O)cc(O)c3C(=O)C2[C@@H]2C(=O)c3c(O)cc(O)cc3O[C@@H]2c2ccc(OC)cc2)cc1` (some centres undefined), the values for the EC50 (in experiment [5]; at Streptokinase A; in the experiment on Streptococcus) were 2.34 µM (active), 1.7 µM (active) and 2.42 µM (active), respectively. Also, the AC50 in [6] was 7.4 µM (active).

`COC(=O)C1=C(C)N(c2cc(C)cc(C)c2)/C(=C/c2ccc(O)cc2)C1=O`: in experiment [1], the CC50 is 18.4 µM (active).

For `N#C/C(=C\c1c[nH]c2ccc(Br)cc12)c1ccccn1`, the EC50 in experiment [5] is 18.7 µM (active); on Streptokinase A it was 51.6 µM (active); in the experiment on Streptococcus, > 150 µM (not active). Also, the AC50 in experiment [6] was 2.25 µM (active).

For `O=C(NC1CCCCC1)NC1C2CC3CC(C2)CC1C3` (centres undefined), the EC50 (in experiment [5]; on Streptokinase A; in the experiment with Streptococcus) was > 150 µM (not active) throughout.

`CC/N=C1/S/C(=C\c2cn(CC(=O)NCc3ccco3)c3ccccc23)C(=O)N1CC`: the EC50 was 11.1 µM (active) in [2], 14.8 µM (active) in experiment [3] and 13.9 µM (active) in experiment [4].

Consider `CC1=NC(C)=C(C(=O)OCCNC(=O)c2ccccc2O)C(c2ccccc2[N+](=O)[O-])/C1=C(\O)OCC1CCCO1` (centres undefined), for which the figures for the EC50 in experiment [2], in experiment [3] and in experiment [4] were 17 µM (active), > 120 µM (not active) and 78.4 µM (active), respectively. The AC50 in the experiment on INS1 is 40.6 µM (active).

Take `C/C(=N\NC(=O)C12CCC(C)(C(=O)O1)C2(C)C)c1ccccc1O` (centres undefined): the EC50 in experiment [2] was 13.1 µM (active); in [3] it was 13.5 µM (active); in [4], > 120 µM (not active).

Consider `C/N=C1\S/C(=C\c2ccc(N3CCOCC3)c(F)c2)C(=O)N1C`, for which the EC50 in experiment [5] is 5.33 µM (active); at Streptokinase A, > 150 µM (not active); in the experiment with Streptococcus it was 12.2 µM (active).
